Data from patent publication US20230234942A1, “COMPOUNDS FOR TREATING HUNTINGTON'S DISEASE” (PTC Therapeutics, Inc., priority 2020, published 2023).

What follows are compounds tested on Endogenous Huntingtin Protein (assay: Endogenous Huntingtin Protein Assay (ELISA-based MSD electrochemiluminescence)). Conditions: Table 2; MSD plates coated with MW1 (expanded polyglutamine) or MAB2166 capture antibody; "inactive" = result above the detection limit of the assay.
Assay type: cell-based
Experimental: Compounds of Formula (I) were tested using the Meso Scale Discovery (MSD) Assay provided in International Application No. PCT/US2016/066042, filed on Dec. 11, 2016 and claiming priority to U.S. Provisional Application 62/265,652 filed on Dec. 10, 2015, the entire contents of which are incorporated herein by reference.
The Endogenous Huntingtin Protein assay used in Biological Example 1 was developed using the ELISA-based MSD electrochemiluminescence assay platform.
Meso Scale Discovery (MSD) 96-well or 384-well plates were coated overnight at 4° C. with MW1 (expanded polyglutamine) or MAB2166 monoclonal antibody (for capture) at a concentration of 1 μg/mL in PBS (30 μL per well). Plates were then washed three times with 300 μL wash buffer (0.05% Tween-20 in PBS) and blocked (100 μL blocking buffer; 5% BSA in PBS) for 4-5 hours at room temperature with rotational shaking and then washed three times with wash buffer.
Samples (25 μL) were transferred to the antibody-coated MSD plate and incubated overnight at 4° C. After removal of the lysates, the plate was washed three times with wash buffer, and 25 μL of #56565 (Cell signaling; rabbit monoclonal) secondary antibody (diluted to 0.25 μg/mL in 0.05% Tween-20 in blocking buffer) was added to each well and incubated with shaking for 1 Hour at room temperature. Following incubation with the secondary antibody, the wells were rinsed with wash buffer after which 25 μL of goat anti-rabbit SULFO TAG secondary detection antibody (required aspect of the MSD system) (diluted to 0.25 μg/mL in 0.05% Tween-20 in blocking buffer) was added to each well and incubated with shaking for 1 hour at room temperature. After rinsing three times with wash buffer, 150 μL of read buffer T with surfactant (MSD) were added to each empty well, and the plate was imaged on a SI 6000 imager (MSD) according to manufacturers' instructions provided for 96- or 384-well plates.

Row | Structure (SMILES) | IC50
1 | CC(C)CC1CN(c2ncc(-c3ccc(-c4cn[nH]c4)cc3O)nn2)CCN1 (stereo not shown) [Cpd 46, 2-{3-[3-(2-methylpropyl)piperazin-1-yl]-1,2,4-triazin-6-yl}-5-(1H-pyrazol-4-yl)phenol] | 150 nM
2 | CC[C@H]1CN(c2ncc(-c3ccc(-c4cn[nH]c4F)cc3O)nn2)C[C@@H](C)N1 [Cpd 223, 2-{3-[(3S,5R)-3-ethyl-5-methylpiperazin-1-yl]-1,2,4-triazin-6-yl]-5-(5-fluoro-1H-pyrazol-4-yl)phenol] | 7 nM
3 | CC[C@H]1CN(c2ncc(-c3ccc(-n4nccn4)cc3O)nn2)CCN1 [Cpd 132, 2-{3-[(3S)-3-ethylpiperazin-1-yl]-1,2,4-triazin-6-yl}-5-(2H-1,2,3-triazol-2-yl)phenol] | 38.9 nM
4 | Oc1cc(-c2cn[nH]c2)ccc1-c1cnc(N2CCN[C@H](C3CC3)C2)nn1 [Cpd 136, 2-{3-[(3R)-3-cyclopropylpiperazin-1-yl]-1,2,4-triazin-6-yl}-5-(1H-pyrazol-4-yl)phenol] | 50.5 nM
5 | CC(C)[C@H]1CN(c2ncc(-c3ccc(-c4ncc(F)s4)cc3O)nn2)CCN1 [Cpd 196, 5-(5-fluoro-1,3-thiazol-2-yl)-2-{3-[(3S)-3-(propan-2-yl)piperazin-1-yl]-1,2,4-triazin-6-yl}phenol] | 492 nM
6 | [2H]C([2H])([2H])Oc1cc(-c2ccc(-c3cnc(N4CCN(C)C(C(C)(C)O)C4)nn3)c(O)c2)ncn1 (stereo not shown) [Cpd 26, 2-{3-[3-(2-hydroxypropan-2-yl)-4-methylpiperazin-1-yl]-1,2,4-triazin-6-yl}-5-{6-[(^2H3)methyloxy]pyrimidin-4-yl}phenol] | 24.9 nM
7 | CC[C@H]1CN(c2ncc(-c3ccc(-c4ncns4)cc3O)nn2)C[C@@H](C)N1 (single isomer, unassigned) [Cpd 267, 2-{3-[(3S,5R)-3-ethyl-5-methylpiperazin-1-yl]-1,2,4-triazin-6-yl}-5-(1,2,4-thiadiazol-5-yl)phenol or 2-{3-[(3R,5S)-3-ethyl-5-methylpiperazin-1-yl]-1,2,4-triazin-6-yl}-5-(1,2,4-thiadiazol-5-yl)phenol] | 145 nM
8 | CC(C)[C@H]1CN(c2ncc(-c3ccc(-c4cn5ncnc5cn4)cc3O)nn2)CCN1 [Cpd 128, 2-{3-[(3S)-3-(propan-2-yl)piperazin-1-yl]-1,2,4-triazin-6-yl}-5-([1,2,4]triazolo[1,5-a]pyrazin-6-yl)phenol] | 26.7 nM
9 | CC(C)[C@@H]1CN(c2ncc(-c3ccc(-c4cn[nH]c4)cc3O)nn2)CCN1 [Cpd 40, 2-{3-[(3R)-3-(propan-2-yl)piperazin-1-yl]-1,2,4-triazin-6-yl}-5-(1H-pyrazol-4-yl)phenol] | 68.2 nM
10 | CC(C)[C@H]1CN(c2ncc(-c3ccc(-c4nnc(C5CC5)o4)cc3O)nn2)CCN1 [Cpd 199, 5-(5-cyclopropyl-1,3,4-oxadiazol-2-yl)-2-{3-[(3S)-3-(propan-2-yl)piperazin-1-yl]-1,2,4-triazin-6-yl}phenol] | 526 nM
11 | Cc1nc2ncc(-c3ccc(-c4cnc(N5C[C@@H](C)N[C@@H](C)C5)nn4)c(O)c3)cn2n1 [Cpd 112, 2-{3-[(3R,5S)-3,5-dimethylpiperazin-1-yl]-1,2,4-triazin-6-yl}-5-(2-methyl[1,2,4]triazolo[1,5-a]pyrimidin-6-yl)phenol] | 34 nM
12 | Oc1cc(-c2cn[nH]c2)ccc1-c1cnc(N2CCNC(C3CCC3)C2)nn1 (stereo not shown) [Cpd 30, 2-[3-(3-cyclobutylpiperazin-1-yl)-1,2,4-triazin-6-yl]-5-(1H-pyrazol-4-yl)phenol] | 33.3 nM
13 | C[C@@H]1CN(c2ncc(-c3ccc(-c4cn[nH]c4)cc3O)nn2)CCN1 [Cpd 166, 2-{3-[(3R)-3-methylpiperazin-1-yl]-1,2,4-triazin-6-yl}-5-(1H-pyrazol-4-yl)phenol] | 192 nM
14 | Cc1cn2cc(-c3ccc(-c4cnc(N5C[C@@H](C)N[C@@H](C)C5)nn4)c(O)c3)nc(C)c2n1 [Cpd 103, 5-(2,8-dimethylimidazo[1,2-a]pyrazin-6-yl)-2-{3-[(3R,5S)-3,5-dimethylpiperazin-1-yl]-1,2,4-triazin-6-yl}phenol] | 13.4 nM
15 | CN1CCN(c2ncc(-c3ncc(-c4cn[nH]c4)cc3O)nn2)CC1 [Cpd 124, 2-[3-(4-methylpiperazin-1-yl)-1,2,4-triazin-6-yl]-5-(1H-pyrazol-4-yl)pyridin-3-ol] | 609 nM
16 | Cn1nc2cnc(-c3ccc(-c4cnc(N5CCN[C@@H](C6CC6)C5)nn4)c(O)c3)cc2n1 [Cpd 172, 2-{3-[(3S)-3-cyclopropylpiperazin-1-yl]-1,2,4-triazin-6-yl}-5-(2-methyl-2H-[1,2,3]triazolo[4,5-c]pyridin-6-yl)phenol] | 4 nM

Row | Structure (SMILES) | IC50
17 | CC(C)(O)C1CN(c2ncc(-c3ccc(-n4nccn4)cc3O)nn2)CCN1 (stereo not shown) [Cpd 14, 2-{3-[3-(2-hydroxypropan-2-yl)piperazin-1-yl]-1,2,4-triazin-6-yl}-5-(2H-1,2,3-triazol-2-yl)phenol] | 12.2 nM
18 | Oc1cc(-c2c[nH]nc2Cl)ccc1-c1cnc(N2CCN[C@@H](C3CC3)C2)nn1 [Cpd 163, 5-(3-chloro-1H-pyrazol-4-yl)-2-{3-[(3S)-3-cyclopropylpiperazin-1-yl]-1,2,4-triazin-6-yl}phenol] | 4.2 nM
19 | C[C@@H]1CN(c2ncc(-c3ccc(-c4ccc5nn(C)nc5n4)cc3O)nn2)C[C@H](C)N1 [Cpd 201, 2-{3-[rac-(3R,5S)-3,5-dimethylpiperazin-1-yl]-1,2,4-triazin-6-yl}-5-(2-methyl-2H-[1,2,3]triazolo[4,5-b]pyridin-5-yl)phenol] | 11.1 nM
20 | Oc1cc(-c2cn3ncnc3cn2)ccc1-c1cnc(N2CCN[C@@H](C3CC3)C2)nn1 [Cpd 130, 2-{3-[(3S)-3-cyclopropylpiperazin-1-yl]-1,2,4-triazin-6-yl}-5-([1,2,4]triazolo[1,5-a]pyrazin-6-yl)phenol] | 12 nM
21 | CCc1cc(-c2ccc(-c3cnc(N4CCN[C@@H](C(C)C)C4)nn3)c(O)c2)cn2cc(C)nc12 [Cpd 138, 5-(8-ethyl-2-methylimidazo[1,2-a]pyridin-6-yl)-2-{3-[(3S)-3-(propan-2-yl)piperazin-1-yl]-1,2,4-triazin-6-yl}phenol] | 19.9 nM
22 | CC(C)[C@H]1CN(c2ncc(-c3ccc(-c4ccc5nn(C)cc5c4)cc3O)nn2)CCN1 [Cpd 88, 5-(2-methyl-2H-indazol-5-yl)-2-{3-[(3S)-3-(propan-2-yl)piperazin-1-yl]-1,2,4-triazin-6-yl}phenol] | 6.5 nM
23 | C[C@@H]1CN(c2ncc(-c3ccc(-c4cnc5nn(C)nc5c4)cc3O)nn2)C[C@H](C)N1 [Cpd 197, 2-{3-[(3R,5S)-3,5-dimethylpiperazin-1-yl]-1,2,4-triazin-6-yl}-5-(2-methyl-2H-[1,2,3]triazolo[4,5-b]pyridin-6-yl)phenol] | 11.6 nM
24 | CNc1ccc(-c2ccc(-c3cnc(N4CCN[C@@H](C5CC5)C4)nn3)c(O)c2)cc1 [Cpd 179, 4-{3-[(3S)-3-cyclopropylpiperazin-1-yl]-1,2,4-triazin-6-yl}-4‘-(methylamino)[1,1‘-biphenyl]-3-ol] | 113 nM
25 | CC(C)[C@H]1CN(c2ncc(-c3ccc(-c4ccc5nccn5c4)cc3O)nn2)CCN1 [Cpd 114, 5-(imidazo[1,2-a]pyridin-6-yl)-2-{3-[(3S)-3-(propan-2-yl)piperazin-1-yl]-1,2,4-triazin-6-yl}phenol] | 54.4 nM
26 | Cc1cn2cc(-c3ccc(-c4cnc(N5CCN(C)CC5)nn4)c(O)c3)cc(F)c2n1 [Cpd 73, 5-(8-fluoro-2-methylimidazo[1,2-a]pyridin-6-yl)-2-[3-(4-methylpiperazin-1-yl)-1,2,4-triazin-6-yl]phenol] | 4.1 nM
27 | COc1cc(-c2ccc(-c3cnc(N4C[C@@H](C)N[C@@H](C5CC5)C4)nn3)c(O)c2)ccn1 [Cpd 256, 2-{3-[(3S,5R)-3-cyclopropyl-5-methylpiperazin-1-yl]-1,2,4-triazin-6-yl}-5-(2-methoxypyridin-4-yl)phenol] | 12.4 nM
28 | CC(C)[C@H]1CN(c2ncc(-c3ccc(-c4ncn(C)n4)cc3O)nn2)CCN1 [Cpd 259, 5-(1-methyl-1H-1,2,4-triazol-3-yl)-2-{3-[(3S)-3-(propan-2-yl)piperazin-1-yl]-1,2,4-triazin-6-yl}phenol] | 338 nM
29 | [2H]C([2H])([2H])n1cc(-c2ccc(-c3cnc(N4CC5CCC(C4)N5C)nn3)c(O)c2)cn1 [Cpd 58, 2-[3-(8-methyl-3,8-diazabicyclo[3.2.1]octan-3-yl)-1,2,4-triazin-6-yl]-5-[l-(^2H3)methyl-1H-pyrazol-4-yl]phenol] | 678 nM
30 | Cc1cc2nc(-c3ccc(-c4cnc(N5C[C@@H](C)N[C@@H](C)C5)nn4)c(O)c3)sc2c(C)n1 [Cpd 116, 2-{3-[(3R,5S)-3,5-dimethylpiperazin-1-yl]-1,2,4-triazin-6-yl}-5-(4,6-dimethyl[1,3]thiazolo[5,4-c]pyridin-2-yl)phenol] | 678 nM
31 | Oc1cc(-c2cn[nH]c2)ccc1-c1cnc(N2CCNC(c3ccccc3)C2)nn1 (stereo not shown) [Cpd 61, 2-[3-(3-phenylpiperazin-1-yl)-1,2,4-triazin-6-yl]-5-(1H-pyrazol-4-yl)phenol] | 1440 nM
